The target in assay [1] is T1, Coelenterazine h 2-monooxygenase (Renilla reniformis, UniProt P27652).
T1 sequence (P27652 whole entry): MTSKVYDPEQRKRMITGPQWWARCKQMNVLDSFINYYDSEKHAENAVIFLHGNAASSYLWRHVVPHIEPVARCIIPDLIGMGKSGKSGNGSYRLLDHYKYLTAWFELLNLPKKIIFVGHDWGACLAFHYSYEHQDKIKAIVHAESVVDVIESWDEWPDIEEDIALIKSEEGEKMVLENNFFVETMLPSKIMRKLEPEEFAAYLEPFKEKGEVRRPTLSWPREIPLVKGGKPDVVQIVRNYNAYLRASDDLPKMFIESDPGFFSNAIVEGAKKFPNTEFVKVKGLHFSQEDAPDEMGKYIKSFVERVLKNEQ
Description: GSK_PKIS: Inhibition of Sea Pansy Luciferase (Data from PubChem: AID 652015) [NIH NCATS]

Assay [2] concerns the target Luciferin 4-monooxygenase (Photinus pyralis, UniProt P08659).
Description: GSK_PKIS: Inhibition of Firefly Luciferase (Data from PubChem: AID 652016) [NIH NCATS]

Luciferin 4-monooxygenase, sequence (P08659 whole entry): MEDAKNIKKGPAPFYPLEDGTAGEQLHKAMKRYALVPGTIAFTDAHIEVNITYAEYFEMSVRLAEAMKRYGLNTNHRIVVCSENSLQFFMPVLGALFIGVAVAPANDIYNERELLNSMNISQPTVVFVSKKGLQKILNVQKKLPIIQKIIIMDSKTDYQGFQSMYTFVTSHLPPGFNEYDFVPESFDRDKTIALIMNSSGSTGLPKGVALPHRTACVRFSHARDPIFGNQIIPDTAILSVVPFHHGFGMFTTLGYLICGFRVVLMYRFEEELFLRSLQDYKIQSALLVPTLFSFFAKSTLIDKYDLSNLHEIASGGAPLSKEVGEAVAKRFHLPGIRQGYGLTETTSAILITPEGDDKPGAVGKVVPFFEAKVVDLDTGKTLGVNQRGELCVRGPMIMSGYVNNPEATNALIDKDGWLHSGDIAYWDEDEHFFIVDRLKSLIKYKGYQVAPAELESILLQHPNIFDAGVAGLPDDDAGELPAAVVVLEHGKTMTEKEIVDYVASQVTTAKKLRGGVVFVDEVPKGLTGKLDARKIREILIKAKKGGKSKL

Turning to `COc1ccc(C2=C(N3CCc4ccccc43)C(=O)NC2=O)cc1`, the AC50 (as a rule, the concentration at which the activity in the assay is half-maximal) in assay [1] (read-out: AC50) was 20.6 µM; in assay [2] it was “Phenotype: Inactive; Curve_Description: None”.

Take `Cc1ccc(C(=O)NC2CC2)cc1-c1ccc2[nH]ncc2c1` [GW820759X]: the AC50 in assay [1] (read-out: AC50) amounted to 20.6 µM; in assay [2] (read-out: AC50), 18.3 µM.

As to `CS(=O)(=O)CCNCc1nc(-c2ccc3ncnc(Nc4ccc(F)c(Cl)c4)c3c2)cs1.Cl` [GW461104A], the half-maximal activity concentration (AC50) result in assay [1] and in assay [2] was “Phenotype: Inactive; Curve_Description: None” each time.

Take `CN1CCN(CCCNc2nc3ccc(Oc4ccc(NC(=O)Nc5cc(C(F)(F)F)ccc5F)cc4)cc3[nH]2)CC1.Cl` [GW700494A]: the half-maximal activity concentration (AC50) in assay [1] (read-out: AC50) is 23.1 µM; in assay [2], “Phenotype: Inactive; Curve_Description: None”.

Consider `NS(=O)(=O)c1ccc(Nc2cc(-c3cccc(O)c3)n[nH]2)cc1` [GW831090X], for which the AC50 entry in assay [1] was “Phenotype: Inactive; Curve_Description: None”; in assay [2] (read-out: AC50), 20.6 µM.

Take `COc1ccc2cc(-c3c(-c4ccncc4)nc(-c4ccc([S+](C)[O-])cc4C)n3C)ccc2c1` (stereo unspecified): the AC50 in assay [1] (read-out: AC50) was 41.1 µM; in assay [2], “Phenotype: Inactive; Curve_Description: None”.

For `NC(=O)c1ccc2c(-c3ccnc(NCCCO)n3)c(-c3ccc(F)cc3)nn2c1` [GW581744X], the AC50 result in assay [1] and in assay [2] was “Phenotype: Inactive; Curve_Description: None” each time.

Regarding `COc1cccc(/C=N/Nc2ncnc3c2cnn3-c2cccc(OC)c2)c1` [GW829874X], the AC50 entry in assay [1] and in assay [2] was “Phenotype: Inactive; Curve_Description: None” in each case.

Regarding `CCN1CCC(CC(=O)Nc2n[nH]c3nc(-c4cccs4)c(Br)cc23)CC1.O=C(O)C(O)C(O)C(=O)O`, the AC50 is 29.1 µM in assay [1] (read-out: AC50) and “Phenotype: Inactive; Curve_Description: None” in assay [2].

Regarding `COc1ccc2ncn(-c3cc(O[C@H](C)c4ccccc4Cl)c(C(N)=O)s3)c2c1` [GSK-317314A], the AC50 result in assay [1] and in assay [2] was “Phenotype: Inactive; Curve_Description: None” throughout.

On to `CS(=O)(=O)CCNCc1coc(-c2ccc3ncnc(Nc4ccc(OCc5ccccc5)cc4)c3c2)c1.Cl` [GW566221A], for which the concentration at half-maximal activity (AC50) entry is “Phenotype: Inactive; Curve_Description: None” in assay [1] and 13 µM in assay [2] (read-out: AC50).

With `COc1ccc(COc2ccc(Cc3cnc(N)nc3N)cc2OC)cc1` [GW632580X], the half-maximal activity concentration (AC50) entry in assay [1] and in assay [2] was “Phenotype: Inactive; Curve_Description: None” each time.

For `c1ccc(-c2n[nH]cc2-c2ccnc(-c3ccc(OCCN4CCOCC4)cc3)c2)nc1` [GW695874X], the concentration at half-maximal activity (AC50) entry in assay [1] and in assay [2] was “Phenotype: Inactive; Curve_Description: None” in each case.

For the molecule `CCS(=O)(=O)c1ccc(OC)c(Nc2ncc(-c3ccccc3Cl)o2)c1` [GW622055X], the concentration at half-maximal activity (AC50) was 18.3 µM in assay [1] (read-out: AC50) and “Phenotype: Inactive; Curve_Description: None” in assay [2].

As for `O=C(Nc1n[nH]c2nc(-c3ccco3)c(Br)cc12)C1CC1`, the AC50 result was “Phenotype: Inactive; Curve_Description: None” in assay [1] and 20.6 µM in assay [2] (read-out: AC50).

Consider `COc1cccc(-n2ncc3c(N/N=C/c4ccc(C)cc4)ncnc32)c1` [GW829877X], for which the half-maximal activity concentration (AC50) result in assay [1] and in assay [2] was “Phenotype: Inactive; Curve_Description: None” throughout.

On to `CS(=O)(=O)CCNCc1ccc(-c2ccc3ncnc(Nc4ccc(OCc5cccc(F)c5)c(C(F)(F)F)c4)c3c2)o1` [GW576484X], for which the AC50 result in assay [1] and in assay [2] was “Phenotype: Inactive; Curve_Description: None” throughout.

Regarding `CNC(=O)c1cccc(C#Cc2cncnc2Nc2ccc(OCc3cccc(F)c3)c(Cl)c2)c1` [GW772405X], the AC50 entry in assay [1] and in assay [2] was “Phenotype: Inactive; Curve_Description: None” in each case.

(Values after ChEMBL document CHEMBL2303647, “Data associated with the publication PLoS ONE, 8(3), e57888, (2013) PMID: 23505445. Compounds: GSK PKIS; Assays: NIH NCATS”.)
